Our source for the Emax and EC50 values is patent publication US9796733B2, “Imidazo-pyrazine derivatives useful as soluble guanylate cyclase activators” (Merck Sharp & Dohme Corp., priority 2014, dated 2017).

For this test, the target named is T1, sGC α1/β1 heterodimer (Homo sapiens, UniProt Q02108+Q02153).
T1 construct: expressed in transfected cells; host or cells: CHO-K1 (clone #7, CHO-K1/sGC)
T1 sequence (Q02108 1-690): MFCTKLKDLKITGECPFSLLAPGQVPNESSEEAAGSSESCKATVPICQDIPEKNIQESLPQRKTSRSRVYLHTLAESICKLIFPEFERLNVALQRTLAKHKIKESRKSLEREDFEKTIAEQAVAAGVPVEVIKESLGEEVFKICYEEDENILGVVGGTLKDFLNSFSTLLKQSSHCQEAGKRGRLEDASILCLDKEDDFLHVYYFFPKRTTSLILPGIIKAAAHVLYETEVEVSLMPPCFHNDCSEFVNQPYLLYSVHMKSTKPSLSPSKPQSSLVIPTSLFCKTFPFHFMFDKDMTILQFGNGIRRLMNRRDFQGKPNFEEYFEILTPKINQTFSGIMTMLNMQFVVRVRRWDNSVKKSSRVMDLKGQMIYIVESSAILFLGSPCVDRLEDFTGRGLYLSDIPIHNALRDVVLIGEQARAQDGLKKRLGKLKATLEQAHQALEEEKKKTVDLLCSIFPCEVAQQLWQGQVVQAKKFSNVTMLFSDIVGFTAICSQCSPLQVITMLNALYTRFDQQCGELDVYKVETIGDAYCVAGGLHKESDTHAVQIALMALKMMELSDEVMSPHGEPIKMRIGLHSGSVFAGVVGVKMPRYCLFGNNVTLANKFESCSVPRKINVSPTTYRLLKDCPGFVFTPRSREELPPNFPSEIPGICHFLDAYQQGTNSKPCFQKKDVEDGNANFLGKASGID
T1 sequence (Q02153 1-619): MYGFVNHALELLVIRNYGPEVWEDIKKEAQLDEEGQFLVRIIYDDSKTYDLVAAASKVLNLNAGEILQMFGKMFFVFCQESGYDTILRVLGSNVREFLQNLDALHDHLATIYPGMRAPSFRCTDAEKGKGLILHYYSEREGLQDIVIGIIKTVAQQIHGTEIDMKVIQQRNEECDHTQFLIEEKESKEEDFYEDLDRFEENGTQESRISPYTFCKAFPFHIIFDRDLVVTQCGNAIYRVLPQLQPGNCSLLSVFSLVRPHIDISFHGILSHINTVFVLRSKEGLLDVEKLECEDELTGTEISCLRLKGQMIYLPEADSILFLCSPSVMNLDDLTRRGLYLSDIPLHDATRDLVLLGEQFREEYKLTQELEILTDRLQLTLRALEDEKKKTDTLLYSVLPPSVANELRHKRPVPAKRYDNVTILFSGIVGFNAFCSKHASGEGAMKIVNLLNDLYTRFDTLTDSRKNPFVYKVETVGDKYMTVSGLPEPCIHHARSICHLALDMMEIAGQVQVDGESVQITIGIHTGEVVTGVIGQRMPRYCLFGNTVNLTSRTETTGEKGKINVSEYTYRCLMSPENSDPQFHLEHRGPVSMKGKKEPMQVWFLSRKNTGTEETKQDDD
Nature of the test: Cell-based sGC functional assay (CASA assay): cGMP generation in CHO-K1/sGC cells, HTRF detection. The note with it: for Emax: CHO-K1, percent activation relative to standard Compound A in CHO-K1/sGC cells, read-out: % Act.; for EC50: inflection point (IP) of cGMP generation in CHO-K1/sGC cells, 4P fit, activity expressed as percentage of Compound A. In a few lines:
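cGMP was quantified by HTRF after 1 hr, 37° C exposure of thawed CHO-K1 cells expressing sGC α1/β1 to compound, with or without 1 μM DETA-NO. IBMX (0.5 mM) blocked cGMP breakdown, and DMSO was 2.5% final. Percent of standard Compound A's maximal cGMP was fitted (4P) for inflection point.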
(In general: In TR-FRET formats the signal depends on donor and acceptor labels being close together.)

In general, EC50 refers to the concentration at which the effect is half-maximal. A low value points to greater potency. In the case of `CC1(C)C(=O)Nc2nc(-c3cn4c(Cl)cnc4c(CCC(F)(F)C(F)(F)F)n3)nc(N)c21` [Example 257, 4-amino-2-(3-chloro-8-(3,3,4,4,4-pentafluorobutyl)imidazo [1,2-a]pyrazin-6-yl)-5,5-dimethyl-5H-pyrrolo[2,3-d]pyrimidin-6(7H)-one], the Emax was determined as 146% and the EC50 was 0.614 µM.

Take `CC1(c2ccc(F)cc2)C(=O)Nc2nc(-c3cn4ccnc4c(CCC(F)(F)C(F)(F)F)n3)nc(N3CCC3)c21` (centres unmarked) [Example 306A, 4-(azetidin-1-yl)-5-(4-fluorophenyl)-5-methyl-2-(8-(3,3,4,4,4-pentafluorobutyl)imidazo[1,2-a]pyrazin-6-yl)-5H-pyrrolo[2,3-d]pyrimidin-6(7H)-one]: the Emax worked out at 108% and the EC50 stood at 0.108 µM.

In the case of `CC(C)C1(c2ccc(Cl)cc2)C(=O)Nc2nc(-c3cn4ccnc4c(CCC(F)(F)F)n3)nc(N)c21` (centres unmarked) [Example 203B, 4-amino-5-(4-chlorophenyl)-5-isopropyl-2-(8-(3,3,3-trifluoropropyl)imidazo[1,2-a]pyrazin-6-yl)-5H-pyrrolo[2,3-d]pyrimidin-6(7H)-one], the Emax is 115% and the midpoint of the response, the EC50, lay at 1.17 µM.

In the case of `CC1(c2cc(F)cc(F)c2)C(=O)Nc2nc(-c3cn4ccnc4cn3)nc(N)c21` (centres unmarked) [Example 142B, 4-amino-5-(3,5-difluorophenyl)-2-(imidazo[1,2-a]pyrazin-6-yl)-5-methyl-5H-pyrrolo[2,3-d]pyrimidin-6(7H)-one], the Emax stood at 166% and a half-maximal response (EC50) required 0.667 µM.

`CC1(C2CC2)C(=O)Nc2nc(-c3cn4ccnc4c(Cc4ccccc4)n3)nc(N)c21` (single isomer, unassigned) [Example 82B, 4-amino-2-(8-benzylimidazo[1,2-a]pyrazin-6-yl)-5-cyclopropyl-5-methyl-5H-pyrrolo[2,3-d]pyrimidin-6(7H)-one]: the Emax amounted to 114% and it took 0.473 µM to reach a half-maximal effect (EC50).

Turning to `CC1(c2ccc(F)cc2)C(=O)Nc2nc(-c3cn4cc(C#N)nc4c(CCC(F)(F)C(F)(F)F)n3)nc(N)c21` (centres unmarked) [Example 275A, 6-(4-Amino-5-(4-fluorophenyl)-5-methyl-6-oxo-6,7-dihydro-5H-pyrrolo[2,3-d]pyrimidin-2-yl)-8-(3,3,4,4,4-pentafluorobutyl)imidazo[1,2-a]pyrazine-2-carbonitrile], the Emax is 98% and the EC50 is 0.089 µM.

For `Cc1cncc(C2(C3CC3)C(=O)Nc3nc(-c4cn5ccnc5c(CCC(F)(F)C(F)(F)F)n4)nc(N)c32)n1` (single isomer, unassigned) [Example 366B, 4-amino-5-cyclopropyl-5-(6-methylpyrazin-2-yl)-2-(8-(3,3,4,4,4-pentafluorobutyl)imidazo[1,2-a]pyrazin-6-yl)-5H-pyrrolo[2,3-d]pyrimidin-6(7H)-one], the Emax came to 122% and a half-maximal effect (EC50) was put at 0.843 µM.

Consider `Cc1cnc(C2(C3CC3)C(=O)Nc3nc(-c4cn5ccnc5c(CCCC(F)(F)F)n4)nc(N)c32)cn1` (single isomer, unassigned) [Example 357B, 4-amino-5-cyclopropyl-5-(5-methylpyrazin-2-yl)-2-(8-(4,4,4-trifluorobutyl)imidazo[1,2-a]pyrazin-6-yl)-5H-pyrrolo[2,3-d]pyrimidin-6(7H)-one], for which the Emax stood at 113% and the half-maximal effective concentration (EC50) stood at 0.68 µM.

`CC1(c2ccc(Cl)cc2)C(=O)Nc2nc(-c3cn4cc(C(F)(F)F)nc4c(Cc4ccc(F)cc4)n3)nc(N)c21` (centres unmarked) [Example 153A, 4-amino-5-(4-chlorophenyl)-2-(8-(4-fluorobenzyl)-2-(trifluoromethyl)imidazo[1,2-a]pyrazin-6-yl)-5-methyl-5H-pyrrolo[2,3-d]pyrimidin-6(7H)-one]: the Emax is 110% and the 50% effective concentration (EC50) amounted to 0.037 µM.

For `CC1(c2ccc(Cl)cc2)C(=O)Nc2nc(-c3cn4ccnc4c(CCC(F)(F)F)n3)nc(N3CCOCC3)c21` (centres unmarked) [Example 297A, 5-(4-chlorophenyl)-5-methyl-4-morpholino-2-(8-(3,3,3-trifluoropropyl)imidazo[1,2-a]pyrazin-6-yl)-5H-pyrrolo[2,3-d]pyrimidin-6(7H)-one], the Emax turned out to be 101% and the EC50 stood at 0.466 µM.

Take `COCCNc1nc(-c2cn3ccnc3c(CCC(F)(F)C(F)(F)F)n2)nc2c1C(C)(C)C(=O)N2` [Example 313, 4-((2-Methoxyethyl)amino)-5,5-dimethyl-2-(8-(3,3,4,4,4-pentafluorobutyl)imidazo[1,2-a]pyrazin-6-yl)-5H-pyrrolo[2,3-d]pyrimidin-6(7H)-one]: the Emax turned out to be 93% and the EC50 came to 0.025 µM.

`CC1(c2ccc(F)cc2)C(=O)Nc2nc(-c3cn4ccnc4c(CCc4cccc(F)c4)n3)nc(N)c21` (centres unmarked) [Example 4A, 4-amino-2-(8-(3-fluorophenethyl)imidazo[1,2-a]pyrazin-6-yl)-5-(4-fluorophenyl)-5-methyl-5H-pyrrolo[2,3-d]pyrimidin-6(7H)-one]: the Emax was 123% and the EC50 was 0.032 µM.

As for `CCC1(CC)C(=O)Nc2nc(-c3cn4ccnc4c(Cc4ccccc4)n3)nc(N)c21` [Example 79, 4-amino-2-(8-benzylimidazo[1,2-a]pyrazin-6-yl)-5,5-diethyl-5H-pyrrolo[2,3-d]pyrimidin-6(7H)-one], the Emax was 112% and the EC50 amounted to 0.036 µM.

Regarding `C#CC1(C)C(=O)Nc2nc(-c3cn4ccnc4c(CCC(F)(F)C(F)(F)F)n3)nc(N)c21` (centres unmarked) [Example 66A, 4-amino-5-ethynyl-5-methyl-2-(8-(3,3,4,4,4-pentafluorobutyl)imidazo[1,2-a]pyrazin-6-yl)-5H-pyrrolo[2,3-d]pyrimidin-6(7H)-one], the Emax was 127% and the EC50 is 0.252 µM.

`CNc1nc(-c2cn3ccnc3c(CCC(F)(F)C(F)(F)F)n2)nc2c1C(C)(c1ccc(F)cc1)C(=O)N2` (centres unmarked) [Example 307A, 5-(4-fluorophenyl)-5-methyl-4-(methylamino)-2-(8-(3,3,4,4,4-pentafluorobutyl)imidazo[1,2-a]pyrazin-6-yl)-5H-pyrrolo[2,3-d]pyrimidin-6(7H)-one]: the Emax is 93% and the EC50 is 0.152 µM.

For `Nc1nc(-c2cn3ccnc3c(CCC(F)(F)F)n2)nc2c1C(c1ccc(Cl)cc1)(C1CCC1)C(=O)N2` (single isomer, unassigned) [Example 351B, 4-amino-5-(4-chlorophenyl)-5-cyclobutyl-2-(8-(3,3,3-trifluoropropyl)imidazo[1,2-a]pyrazin-6-yl)-5H-pyrrolo[2,3-d]pyrimidin-6(7H)-one], the Emax was determined as 182% and the EC50 stood at 0.985 µM.

With `Nc1nc(-c2cn3cc(C(F)(F)F)nc3c(Cc3cccc(F)c3F)n2)nc2c1C(C(=O)NC1CC1)(C1CC1)C(=O)N2` (centres unmarked) [Example 48B, 4-amino-N,5-dicyclopropyl-2-(8-(2,3-difluorobenzyl)-2-(trifluoromethyl)imidazo[1,2-a]pyrazin-6-yl)-6-oxo-6,7-dihydro-5H-pyrrolo[2,3-d]pyrimidine-5-carboxamide], the Emax is 93% and the concentration giving a half-maximal response (EC50) stood at 0.442 µM.

Turning to `CC1(c2ccc(F)cc2)C(=O)Nc2nc(-c3cn4ccnc4c(Cc4ccccc4F)n3)nc(N)c21` (centres unmarked) [Example 89A, 4-amino-2-(8-(2-fluorobenzyl)imidazo[1,2-a]pyrazin-6-yl)-5-(4-fluorophenyl)-5-methyl-5H-pyrrolo[2,3-d]pyrimidin-6(7H)-one], the Emax was 141% and the concentration giving a half-maximal response (EC50) amounted to 0.004 µM.

`CC1(c2ccc(C(F)(F)F)cc2)C(=O)Nc2nc(-c3cn4ccnc4c(CCC(F)(F)C(F)(F)F)n3)nc(N)c21` (centres unmarked) [Example 237B, 4-amino-5-methyl-2-(8-(3,3,4,4,4-pentafluorobutyl)imidazo [1,2-a]pyrazin-6-yl)-5-(4-(trifluoromethyl)phenyl)-5H-pyrrolo[2,3-d]pyrimidin-6(7H)-one]: the Emax was determined as 119% and it took 0.053 µM to reach a half-maximal effect (EC50).
